Type in all cases: cell-based
The nature of series [1]: Nephrotoxicity assay: in vitro cytotoxicity of HK-2 cells by CCK-8 assay. Particulars: human, HK-2 cells (human renal), 72 h incubation with drug-containing medium. In outline: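 HK-2 human renal cells in RPMI-1640 with 10% FBS were exposed to compounds at final 12.5–500 µg/mL for 72 h, then CCK-8 for 3 h and OD450 read. Viability was normalised to drug-free wells; IC50 came from logarithmic regression over three repeats, with polymyxin B as positive drug.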
(Formazan colour is commonly taken as a measure of viable cells.)

In series [2] the test system is Escherichia coli ATCC BAA-2340 (KPC). Particulars: ATCC BAA-2340. The procedure, abridged:
(§1)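 Colonies from 18-24 h plates were suspended to 0.5 McFarland and diluted in MH broth. Two-fold compound dilutions were then mixed 1:1 with inoculum to reach 64 to 0.03 mg/L and (2-4) × 10^5 CFU/mL. Plates were sealed and incubated at 35-37°C for 16-20 h, after which the MIC was read.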

In series [3] the test system is Pseudomonas aeruginosa ATCC 27853. Particulars: ATCC 27853. The procedure, abridged: as §1
Series [4] has as its system Acinetobacter baumannii ABA19-1. Particulars: ABA19-1. In outline:
as §1

Series [5] deals with Pseudomonas aeruginosa PAE19-3. Conditions: PAE19-3. The procedure, abridged: as §1
For series [6], the system named is Klebsiella pneumoniae KPN+19-15. Conditions: KPN+19-15. In outline: as §1
Series [7] relates to Acinetobacter baumannii NCTC 13304 (OXA-27). Particulars: NCTC 13304. The procedure, abridged:
as §1

The test system of series [8] is Escherichia coli ATCC BAA-2523. Particulars: ATCC BAA-2523. The procedure, abridged: as §1
In series [9] the test system is Klebsiella pneumoniae ATCC BAA-1705 (KPC). Particulars: ATCC BAA-1705. The procedure, abridged:
as §1

SMILES strings stand for the structures. Values after ≈ are worked out from the molar mass of the structure shown. Bridge positions count the residues as written; N and C are the ends. Square brackets hold non-standard residues; d marks the D form. Peptide text beside a SMILES is read from it. * marks the point of attachment. Heptanoyl(6-Me) = CC(C)CCCCC(=O)*; Nonanoyl = CCCCCCCCC(=O)*; X1 = CC[C@H](C)CCCCC(=O)*; dDab = NCC[C@@H](N)C(=O)O; Heptanoyl = CCCCCCC(=O)*; Octanoyl = CCCCCCCC(=O)*; Orn = NCCC[C@H](N)C(=O)O; dDap = NC[C@@H](N)C(=O)O; Dab = NCC[C@H](N)C(=O)O; Dap = NC[C@H](N)C(=O)O Where only a bound is given, the exact number is not on record here.

`CCCCCCCCC(=O)N[C@@H](CCN)C(=O)N[C@H](C(=O)N[C@H](CCN)C(=O)N[C@H]1CCNC(=O)[C@H]([C@@H](C)O)NC(=O)[C@H](CCN)NC(=O)[C@H](CCN)NC(=O)[C@H]([C@@H](C)O)NC(=O)[C@@H](Cc2ccccc2)NC(=O)[C@H](CCN)NC1=O)[C@@H](C)O` [Compound 15, Nonanoyl-Dab-Thr-D-Dab-ring(4-10)[Dab-Dab-D-Phe-Thr-Dab-Dab-Thr]] (Nonanoyl-[Dab]T[dDab][Dab][Dab][dF]T[Dab][Dab]T; lactam 4-C): the midpoint of inhibition in [1], the IC50 at 72 h, lay at 320 ± 31.5 µg/mL (≈ 269 µM). Besides, the MIC – broadly, the lowest concentration that inhibits growth of the organism – in series [2] was 0.06 µg/mL (≈ 0.0504 µM); in series [3], 2 µg/mL (≈ 1.68 µM); in series [4], 0.06 µg/mL (≈ 0.0504 µM); in series [5], 2 µg/mL (≈ 1.68 µM); in series [6], 0.06 µg/mL (≈ 0.0504 µM); in [7] it was 0.06 µg/mL (≈ 0.0504 µM). Further, the MIC in series [8] and in series [9] was 0.06 µg/mL (≈ 0.0504 µM) each time.
Regarding `CCCCCCCCC(=O)N[C@@H](CN)C(=O)N[C@H](C(=O)N[C@H](CCN)C(=O)N[C@H]1CCNC(=O)[C@H]([C@@H](C)O)NC(=O)[C@H](CCN)NC(=O)[C@H](CCN)NC(=O)[C@H](CC(C)C)NC(=O)[C@@H](Cc2ccccc2)NC(=O)[C@H](CCN)NC1=O)[C@@H](C)O` [Compound 95, Nonanoyl-Dap-Thr-D-Dab-ring(4-10)[Dab-Dab-D-Phe-Leu-Dab-Dab-Thr]] (Nonanoyl-[Dap]T[dDab][Dab][Dab][dF]L[Dab][Dab]T; lactam 4-C), the IC50 (commonly the concentration that gives 50% inhibition) at 72 h in series [1] was found to be 113 ± 10.3 µg/mL (≈ 94.8 µM). In addition, the minimum inhibitory concentration (MIC) in series [2] came to 0.125 µg/mL (≈ 0.105 µM); in series [3], 1 µg/mL (≈ 0.841 µM); in [4], 0.06 µg/mL (≈ 0.0504 µM); in [5] it was 1 µg/mL (≈ 0.841 µM); in [6], 0.06 µg/mL (≈ 0.0504 µM); in [7], 0.06 µg/mL (≈ 0.0504 µM). Further, the MIC in series [8] is given as 0.125 µg/mL (≈ 0.105 µM); in series [9], 0.06 µg/mL (≈ 0.0504 µM).
In turn, `CC[C@H](C)CCCCC(=O)N[C@@H](CN)C(=O)N[C@H](C(=O)N[C@H](CO)C(=O)N[C@H]1CCNC(=O)[C@H]([C@@H](C)O)NC(=O)[C@H](CCN)NC(=O)[C@H](CCN)NC(=O)[C@H]([C@@H](C)O)NC(=O)[C@@H](Cc2ccccc2)NC(=O)[C@H](CCN)NC1=O)[C@@H](C)O` [Compound 51, (S)-6-methyloctanoyl-Dap-Thr-D-Ser-ring(4-10)[Dab-Dab-D-Phe-Thr-Dab-Dab-Thr]] (X1-[Dap]T[dS][Dab][Dab][dF]T[Dab][Dab]T; lactam 4-C) returned an IC50 at 72 h in series [1] above 500 µg/mL. For the same molecule, the MIC in series [2] is at most 0.03 µg/mL; in series [3] it was 64 µg/mL (≈ 55 µM); in [4] it was 0.25 µg/mL (≈ 0.215 µM); in series [5] it was 4 µg/mL (≈ 3.44 µM); in series [6], 0.5 µg/mL (≈ 0.429 µM); in series [7], 0.25 µg/mL (≈ 0.215 µM). Moreover, the figures for the MIC in series [8] and in series [9] were at most 0.03 µg/mL and 0.25 µg/mL (≈ 0.215 µM), respectively.
For the molecule `CCCCCCC(=O)N[C@@H](CCN)C(=O)N[C@H](C(=O)N[C@H](CO)C(=O)N[C@H]1CCNC(=O)[C@H]([C@@H](C)O)NC(=O)[C@H](CCCN)NC(=O)[C@H](CCN)NC(=O)[C@H]([C@@H](C)O)NC(=O)[C@@H](Cc2ccccc2)NC(=O)[C@H](CCN)NC1=O)[C@@H](C)O` [Compound 89, Heptanoyl-Dab-Thr-D-Ser-ring(4-10)[Dab-Dab-D-Phe-Thr-Dab-Orn-Thr]] (Heptanoyl-[Dab]T[dS][Dab][Dab][dF]T[Dab][Orn]T; lactam 4-C), in series [1], the IC50 at 72 h was above 500 µg/mL. For the same molecule, the MIC in series [2] is on record as 0.125 µg/mL (≈ 0.107 µM); in series [3], above 64 µg/mL; in series [4], 0.06 µg/mL (≈ 0.0515 µM); in series [5], 64 µg/mL (≈ 55 µM); in series [6] it was 0.5 µg/mL (≈ 0.429 µM); in [7], 0.03 µg/mL (≈ 0.0258 µM). The minimum inhibitory concentration (MIC) was 0.125 µg/mL (≈ 0.107 µM) in [8] and 0.25 µg/mL (≈ 0.215 µM) in series [9].
In turn, `CCCCCCCCC(=O)N[C@@H](CCN)C(=O)N[C@H](C(=O)N[C@H](CN)C(=O)N[C@H]1CCNC(=O)[C@H]([C@@H](C)O)NC(=O)[C@H](CCN)NC(=O)[C@H](CCN)NC(=O)[C@H]([C@@H](C)O)NC(=O)[C@@H](Cc2ccccc2)NC(=O)[C@H](CCN)NC1=O)[C@@H](C)O` [Compound 5, Nonanoyl-Dab-Thr-D-Dap-ring(4-10)[Dab-Dab-D-Phe-Thr-Dab-Dab-Thr]] (Nonanoyl-[Dab]T[dDap][Dab][Dab][dF]T[Dab][Dab]T; lactam 4-C) had an IC50 at 72 h in [1] of 380 ± 30.5 µg/mL (≈ 323 µM). For the same molecule, the MIC in [2] is 0.06 µg/mL (≈ 0.051 µM); in series [3] it was 0.06 µg/mL (≈ 0.051 µM); in series [4], 0.06 µg/mL (≈ 0.051 µM); in [5] it was 0.5 µg/mL (≈ 0.425 µM); in [6], 0.06 µg/mL (≈ 0.051 µM); in series [7], 0.06 µg/mL (≈ 0.051 µM). For the same molecule, the MIC in [8] and in series [9] was 0.06 µg/mL (≈ 0.051 µM) in each case.
Regarding `CC[C@H](C)CCCCC(=O)N[C@@H](CCN)C(=O)N[C@H](C(=O)N[C@H](CO)C(=O)N[C@H]1CCNC(=O)[C@H]([C@@H](C)O)NC(=O)[C@H](CCN)NC(=O)[C@H](CN)NC(=O)[C@H]([C@@H](C)O)NC(=O)[C@@H](Cc2ccccc2)NC(=O)[C@H](CCN)NC1=O)[C@@H](C)O` [Compound 71, (S)-6-methyloctanoyl-Dab-Thr-D-Ser-ring(4-10)[Dab-Dab-D-Phe-Thr-Dap-Dab-Thr]] (X1-[Dab]T[dS][Dab][Dab][dF]T[Dap][Dab]T; lactam 4-C), in [1], the IC50 at 72 h is above 500 µg/mL. The MIC in series [2] is reported as at most 0.03 µg/mL; in [3], above 64 µg/mL; in series [4] it was 0.06 µg/mL (≈ 0.0515 µM); in series [5] it was 64 µg/mL (≈ 55 µM); in series [6], 0.5 µg/mL (≈ 0.429 µM); in [7], at most 0.03 µg/mL. Further, the MIC in series [8] was at most 0.03 µg/mL; in series [9], 0.25 µg/mL (≈ 0.215 µM).
Molecule `CCCCCCCCC(=O)N[C@@H](CCN)C(=O)N[C@H](C(=O)N[C@H](CO)C(=O)N[C@H]1CCNC(=O)[C@H]([C@@H](C)O)NC(=O)[C@H](CCCN)NC(=O)[C@H](CCN)NC(=O)[C@H]([C@@H](C)O)NC(=O)[C@@H](Cc2ccccc2)NC(=O)[C@H](CCN)NC1=O)[C@@H](C)O` [Compound 90, Nonanoyl-Dab-Thr-D-Ser-ring(4-10)[Dab-Dab-D-Phe-Thr-Dab-Orn-Thr]] (Nonanoyl-[Dab]T[dS][Dab][Dab][dF]T[Dab][Orn]T; lactam 4-C) displayed an IC50 at 72 h in series [1] of 320 ± 23.6 µg/mL (≈ 268 µM). In addition, the MIC in [2] is 0.25 µg/mL (≈ 0.21 µM); in series [3], above 64 µg/mL; in series [4], 0.06 µg/mL (≈ 0.0503 µM); in series [5] it was 64 µg/mL (≈ 53.7 µM); in series [6] it was 0.5 µg/mL (≈ 0.419 µM); in [7], 0.03 µg/mL (≈ 0.0252 µM). The MIC in [8] and in series [9] was 0.25 µg/mL (≈ 0.21 µM) throughout.
`CCCCCCCC(=O)N[C@@H](CN)C(=O)N[C@H](C(=O)N[C@H](CCN)C(=O)N[C@H]1CCNC(=O)[C@H]([C@@H](C)O)NC(=O)[C@H](CCN)NC(=O)[C@H](CCN)NC(=O)[C@H](CC(C)C)NC(=O)[C@@H](Cc2ccccc2)NC(=O)[C@H](CCN)NC1=O)[C@@H](C)O` [Compound 93, Octanoyl-Dap-Thr-D-Dab-ring(4-10)[Dab-Dab-D-Phe-Leu-Dab-Dab-Thr]] (Octanoyl-[Dap]T[dDab][Dab][Dab][dF]L[Dab][Dab]T; lactam 4-C) registered a half-inhibitory concentration (IC50) at 72 h in [1] of 239 ± 19.1 µg/mL (≈ 204 µM). The MIC in [2] was 0.03 µg/mL (≈ 0.0255 µM); in series [3], 1 µg/mL (≈ 0.851 µM); in [4] it was 0.03 µg/mL (≈ 0.0255 µM); in series [5], 1 µg/mL (≈ 0.851 µM); in series [6] it was 0.03 µg/mL (≈ 0.0255 µM); in [7], 0.03 µg/mL (≈ 0.0255 µM). Moreover, the MIC in series [8] and in series [9] was 0.03 µg/mL (≈ 0.0255 µM) in each case.
`CC(C)CCCCC(=O)N[C@@H](CCCN)C(=O)N[C@H](C(=O)N[C@H](CO)C(=O)N[C@H]1CCNC(=O)[C@H]([C@@H](C)O)NC(=O)[C@H](CCN)NC(=O)[C@H](CCN)NC(=O)[C@H]([C@@H](C)O)NC(=O)[C@@H](Cc2ccccc2)NC(=O)[C@H](CCN)NC1=O)[C@@H](C)O` [Compound 57, 6-methylheptanoyl-Orn-Thr-D-Ser-ring(4-10)[Dab-Dab-D-Phe-Thr-Dab-Dab-Thr]] ({Heptanoyl(6-Me)}-[Orn]T[dS][Dab][Dab][dF]T[Dab][Dab]T; lactam 4-C) showed an IC50 at 72 h in series [1] above 500 µg/mL. The MIC in series [2] was determined as 0.125 µg/mL (≈ 0.106 µM); in series [3], 64 µg/mL (≈ 54.3 µM); in series [4] it was 0.25 µg/mL (≈ 0.212 µM); in series [5], 4 µg/mL (≈ 3.39 µM); in series [6] it was 0.5 µg/mL (≈ 0.424 µM); in [7], 0.25 µg/mL (≈ 0.212 µM). Moreover, the MIC came to 0.125 µg/mL (≈ 0.106 µM) in series [8] and 0.25 µg/mL (≈ 0.212 µM) in series [9].

The values are drawn from patent EP4725957A1, “GROUP OF CYCLIC ALKALINE LIPOPEPTIDE COMPOUNDS, AND PREPARATION METHOD THEREFOR AND USE THEREOF” (Institute of Medicinal Biotechnology, Chinese Academy of …, priority 2023, dated 2024).
